Values quoted from earlier work, collected in PMC3411352 (Biopolymers, 2011).
Values joined by “and” are separate entries in the source; they are usually repeats but may differ in a detail not shown here. Equal values may be shown once. Read-outs that look alike come from different tables or passages of the source.

How the values were obtained:
rat κ opioid receptors [1] = target: T1, rat κ opioid receptors (Rattus norvegicus, UniProt P34975); details: for Ki: read-out: Ki ± SEM κ, κ opioid receptors
rat κ opioid receptors [2] = target: T1, rat κ opioid receptors; details: relative to Dyn A (1-13)NH2 (0% control)
κ opioid receptors [3] = target: κ opioid receptors
rat μ opioid receptors = rat μ opioid receptors (Rattus norvegicus, UniProt P33535); details: read-out: Ki ± SEM μ
κ opioid receptors [4] = details: selectivity

T1 sequence (P34975 whole entry): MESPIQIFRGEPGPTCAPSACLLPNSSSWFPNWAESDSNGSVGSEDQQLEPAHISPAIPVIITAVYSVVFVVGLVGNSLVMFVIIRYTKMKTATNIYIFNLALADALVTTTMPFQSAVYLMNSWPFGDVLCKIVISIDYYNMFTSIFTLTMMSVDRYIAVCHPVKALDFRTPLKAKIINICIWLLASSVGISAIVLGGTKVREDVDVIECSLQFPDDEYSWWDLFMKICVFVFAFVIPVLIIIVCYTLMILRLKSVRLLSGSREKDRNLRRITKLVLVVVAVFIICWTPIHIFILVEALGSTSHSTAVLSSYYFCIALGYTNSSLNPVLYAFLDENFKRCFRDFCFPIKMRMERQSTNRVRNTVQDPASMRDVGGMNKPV
Sequence of rat μ opioid receptors (P33535 whole entry): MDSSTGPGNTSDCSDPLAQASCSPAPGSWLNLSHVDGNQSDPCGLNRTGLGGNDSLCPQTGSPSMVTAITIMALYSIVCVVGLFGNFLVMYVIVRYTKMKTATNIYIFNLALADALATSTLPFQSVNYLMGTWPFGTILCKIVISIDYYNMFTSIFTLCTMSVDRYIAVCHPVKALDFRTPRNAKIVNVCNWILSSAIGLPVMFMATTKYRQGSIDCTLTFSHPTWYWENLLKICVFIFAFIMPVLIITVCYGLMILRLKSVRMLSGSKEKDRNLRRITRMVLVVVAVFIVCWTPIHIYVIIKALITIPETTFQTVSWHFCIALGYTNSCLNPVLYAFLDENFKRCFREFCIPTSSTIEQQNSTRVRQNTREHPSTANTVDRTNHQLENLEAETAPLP

Substance: Ac[Phe^1,2,3,Arg^4,D-Ala^8]Dyn A(1-11)-NH2 [Compound 1]
- Ki (rat κ opioid receptors [1]): 10 ± 3 nM
- AC % control @ 10 μM (rat κ opioid receptors [2]): 88 ± 8 % control

Substance: [(2S)-Mdp^1]Dyn A-(1-11)NH2 [Dynantin]
- Ki (κ opioid receptors [3]; read-out: Ki (κ)): 0.82 nM
- Ki ratio (κ/μ/δ) (κ opioid receptors [3]; selectivity): 1/259/198

Substance: [NMePhe^1]arodyn [Compound 2]
- Ki (rat κ opioid receptors [1]): 4.6 nM and 4.56 nM
- Ki ratio (μ/κ) (rat κ opioid receptors [1]; selectivity κ over μ): 1100
- Ki (rat μ opioid receptors): 5060 ± 790 nM
- AC % control @ 10 μM (rat κ opioid receptors [2]): 86 ± 1 % control

Substance: [Pro^3]Dyn A-(1-11)NH2
- Ki ratio (κ/μ/δ) (κ opioid receptors [4]): 1/2110/3260
